Biological target: T1, HMG-CoA reductase (Rattus norvegicus, UniProt P51639)
T1 sequence (P51639 1-887): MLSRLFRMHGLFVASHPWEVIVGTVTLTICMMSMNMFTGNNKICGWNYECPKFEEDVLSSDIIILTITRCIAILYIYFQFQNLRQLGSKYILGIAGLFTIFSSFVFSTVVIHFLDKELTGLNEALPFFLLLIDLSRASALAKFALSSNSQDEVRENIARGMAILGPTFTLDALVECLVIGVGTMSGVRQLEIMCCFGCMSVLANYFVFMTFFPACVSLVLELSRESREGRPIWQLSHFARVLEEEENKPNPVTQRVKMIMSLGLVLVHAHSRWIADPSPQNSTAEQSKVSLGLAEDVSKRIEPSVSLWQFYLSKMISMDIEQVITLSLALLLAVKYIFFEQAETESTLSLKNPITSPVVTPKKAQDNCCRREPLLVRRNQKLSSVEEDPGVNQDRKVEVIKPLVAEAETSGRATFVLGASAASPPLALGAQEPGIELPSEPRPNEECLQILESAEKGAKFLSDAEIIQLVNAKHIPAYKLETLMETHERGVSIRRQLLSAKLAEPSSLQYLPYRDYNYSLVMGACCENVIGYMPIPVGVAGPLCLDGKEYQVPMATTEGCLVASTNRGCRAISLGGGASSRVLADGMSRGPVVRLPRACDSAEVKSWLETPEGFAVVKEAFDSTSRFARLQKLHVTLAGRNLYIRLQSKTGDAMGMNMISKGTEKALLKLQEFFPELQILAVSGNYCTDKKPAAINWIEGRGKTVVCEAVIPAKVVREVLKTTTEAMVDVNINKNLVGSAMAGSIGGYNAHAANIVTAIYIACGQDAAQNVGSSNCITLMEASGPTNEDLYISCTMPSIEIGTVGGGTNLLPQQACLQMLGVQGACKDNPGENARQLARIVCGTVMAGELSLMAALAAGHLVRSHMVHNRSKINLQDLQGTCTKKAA
Experiment: intrinsic HMG-CoA reductase inhibition, in vitro protocol of J. Med. Chem., 28, p. 347-358 (1985)
Assay type: biochemical
Conditions: IC50 of test compound compared with that of compactin determined simultaneously; compactin = 100
Method: The intrinsic HMG-CoA reductase inhibition activity of the claimed compounds is measured in the in vitro protocol published in J. Med. Chem., 28, p. 347-358 (1985).
For estimation of relative inhibitory potencies, compactin (i.e., mevastatin) was assigned a value of 100 and the IC50 value of the test compound was compared with that of compactin determined simultaneously in the published in vitro protocol.

Relative Potency	Structure (SMILES)
170	CCC(C)(C)C(=O)O[C@H]1CC2(CC2)C[C@@H]2CC[C@H](C)[C@H](CC[C@@H]3C[C@@H](O)CC(=O)O3)[C@H]21 [1,1-dimethylpropyl --CH2 CH2 --]
111	CCC(C)(C)C(=O)O[C@H]1CC(C)(C)C[C@@H]2CC[C@H](C)[C@H](CC[C@@H]3C[C@@H](O)CC(=O)O3)[C@H]21 [1,1-dimethylpropyl CH3 CH3, 6(R)-[2-(8(S)-(2,2-Dimethylbutyryloxy)-2(S),6,6-trimethyl-1,2,3,4,4a(S),5,6,7,8,8a(S)-decahydronaphthyl-1(S)]ethyl]-4(R) hydroxy-3,4,5,6-tetrahydro-2H pyran-2-one]
